The record followed here is patent US6630124B1, “Combination therapy with VIP antagonist” (Ramot-University Authority for Applied Research and …, priority 1998, dated 2003).

Data set [1] has as its system MCF-7 breast cancer cells. Kind of data set: MTT assay, Taxol with or without SNVIPhyb. The data set is classed as cell-based. The settings on record: 10 μM SNVIPhyb, MTT assay. An excerpt: The ability of SNVIPhyb to inhibit cancer growth was investigated.
The subject of data set [2] is VIP receptor (glioblastoma cells). In words: cAMP in glioblastoma cells, basal and VIP-stimulated. The data set is classed as cell-based. An excerpt:
(§1) The effects of VIP receptor antagonists on glioblastoma cell lines were investigated.

Data set [3] deals with U-87 cells. Kind of data set: U-87 colony formation in soft agar. The settings on record: in vitro. The data set is classed as cell-based.
Description: as §1

Data set [4] relates to NCI-H727 non-small cell lung cancer (carcinoid). In words: MTS cell proliferation assay, SNH and chemotherapy. The data set is classed as cell-based. The note with it: 8 μM SNH, 6 hour incubation, then 66 hour fresh medium. As to the method: NCI-H727 and LNCaP were grown in RPMI 1640 medium supplemented with 10% heat inactivated FCS, L-glutamine and antibiotics. HT-29 and CT-26 were grown in DMEM medium supplemented with 10% heat-inactivated FCS (fetal calf serum), L-glutamine and antibiotics. The cells were cultured in 5% CO2/95% air at […] and used during their exponential growth phase. Routinely, the cells which are adherent, were split when a subconfluent monolayer was formed. In different experiments, various concentration of FCS were used. For growth inhibition experiments, subconfluent adherent cells were washed with PBS and treated with trypsin/versene. The cells were pelleted and resuspended in medium to a final concentration of 75,000 cells/mL for NCI-H727. 50,000 cells/mL for LNCaP and HT-29 and 25000 cells/mL for CT-26. These different concentrations were used in order to avoid confluence in the wells at the end of the experiment and correspond to the different doubling times of the cell lines. On day 0, cells suspensions […] were dispensed using a multi-channel pipet into the individual wells of a 96-well tissue culture plate (Nuncion, Nunc Brand Products). […] Cells were incubated for 24 hours in a humidified atmosphere of 95% air/5% CO2 at 37° C. before treatment. On day 1, the cells were treated with different drugs and schedules and maintained under the same conditions. On day 4, viable cell number was determined by a modified MTT assay i.e., MTS non-radioactive cell proliferation assay (Promega). […] Results were finally expressed as percentage of the control, which was obtained from the samples with no drug treatment. Dose-response curves were plotted using a Sigma-Plot software and statistically analyzed using Student test. To determine the effect of the lipophilic VIP antagonist SNH on cell proliferation, cells plated in 96-well microplates for 24 hours as described, were treated with various concentrations of SNH. The peptide was diluted in PBS and […] of the peptide solution was added to each well for a final concentration of the peptide between 10^−510^−9 M. The solvent was added to the control wells. […] A dose-response curve was obtained at concentrations ranging from 2 μM-10 μM (see, FIG. 2). […] The effects of an 8 hours treatment were slightly less, showing that most of the effect is in the initial hours of exposure and much more dose than time dependent. […] For the experiments with the combinations of VIP antagonists and chemotherapeutic agents, on day 0, the cells were plated for 24 hours in medium supplemented with 5% FCS. On day 1, the peptide was added to the wells followed 1 hour later by the chemotherapeutic agents. […] The chemotherapeutic drugs were tested over 7 concentrations, covering as much as possible of the dose response curve of each individual drug. 24 hours later, the medium was exchanged and the cells incubated under the same conditions for another 48 hours. On day 4 the number of viable cells was determined by MTS assay.

The test system of data set [5] is cancer cells. Kind of data set: MTS cell proliferation assay, inhibition of cell growth by SNH. Type of data set: cell-based. An excerpt: For growth inhibition experiments, subconfluent adherent cells were washed with PBS and treated with trypsin/versene. The cells were pelleted and resuspended in medium to a final concentration of 75,000 cells/mL for NCI-H727. 50,000 cells/mL for LNCaP and HT-29 and 25000 cells/mL for CT-26. These different concentrations were used in order to avoid confluence in the wells at the end of the experiment and correspond to the different doubling times of the cell lines.
On day 0, cells suspensions […] were dispensed using a multi-channel pipet into the individual wells of a 96-well tissue culture plate (Nuncion, Nunc Brand Products). […] Cells were incubated for 24 hours in a humidified atmosphere of 95% air/5% CO2 at 37° C. before treatment. […]
On day 4, viable cell number was determined by a modified MTT assay i.e., MTS non-radioactive cell proliferation assay (Promega). Briefly, […] of freshly prepared MTS/PMS solution was added to each individual well and after 1-3 hours of incubation (the optimal time was determined for each cell line) absorbance at 490 nm was measured using a multiscan plate reader. Results were finally expressed as percentage of the control, which was obtained from the samples with no drug treatment. Dose-response curves were plotted using a Sigma-Plot software and statistically analyzed using Student test. […]
(In general: Tetrazolium assays rely on reduction of a dye to a coloured formazan, in cell work by metabolically active cells.)

The subject of data set [6] is panel of 56 cancer cell lines. In words: NCI "compare analysis", panel of 56 cancer cell lines. The data set is classed as cell-based. An excerpt:
The mean value±S. D. of 8 determinations is indicated; *, p<0.05 using student's t-test. (SN)VIPhyb inhibited the growth of leukemia (CCRF-CEM), HL-60(TB), K-562, MOLT-4, RPMI-8226, SR), non-small cell lung cancer (A549, EKVX, HOP-62, HOP-92, H23, H322M, H460 and H522), colon cancer (COLO205, HCC-2998, HCT-116, HT29, KM12, SW-620), CNS cancer (SF-268, SF-295, SF-539, SNB-19, U251), melanoma (LOX IMVI, MALME-3M, M14, SK-MEL-2, SK-MEL-28, SK-MEL-5, UACC-257, UACC-62), ovarian cancer (IGROV1, OVCAR-3, OVCAR-5, OVCAR-8, SK-OV-3), renal cancer (786-0, A498, CAKI-1, RXF 393, SM12C, TK-l0), prostate cancer (PC-3, DU-145) and breast cancer (MCF-7, MDA-MB-231, HS 578T, MDA-MB-435, MDA-N and T-47D).

The subject of data set [7] is nonsmall cell lung cancer line. The note with it: 2 mM of the antagonist.
Description: Assays were performed with cell lines derived from colon cancer and prostate cancer. Proliferation was assessed using the MTS colorimetric assay of mitochondrial function for living cells. The VIP antagonist (stearyl-Nle17-neurotensis 6-11 VIP 7-28) was used.

Where a SMILES comes first, the peptide text is derived from it. [ ]: non-standard residue; d: D form. The star is where a group is joined. Stearoyl = CCCCCCCCCCCCCCCCCC(=O)*; Nle = CCCC[C@H](N)C(=O)O

As for `CCCCCCCCCCCCCCCCCC(=O)N[C@@H](CCCCN)C(=O)N1CCC[C@H]1C(=O)N[C@@H](CCCNC(=N)N)C(=O)N[C@@H](CCCNC(=N)N)C(=O)N1CCC[C@H]1C(=O)N[C@@H](Cc1ccc(O)cc1)C(=O)N[C@H](C(=O)N[C@@H](CC(=O)O)C(=O)N[C@@H](CC(N)=O)C(=O)N[C@@H](Cc1ccc(O)cc1)C(=O)N[C@H](C(=O)N[C@@H](CCCNC(=N)N)C(=O)N[C@@H](CC(C)C)C(=O)N[C@@H](CCCNC(=N)N)C(=O)N[C@@H](CCCCN)C(=O)N[C@@H](CCC(N)=O)C(=O)N[C@@H](CCCC)C(=O)N[C@@H](C)C(=O)N[C@H](C(=O)N[C@@H](CCCCN)C(=O)N[C@@H](CCCCN)C(=O)N[C@@H](Cc1ccc(O)cc1)C(=O)N[C@@H](CC(C)C)C(=O)N[C@@H](CC(N)=O)C(=O)N[C@@H](CO)C(=O)N[C@H](C(=O)N[C@@H](CC(C)C)C(=O)N[C@@H](CC(N)=O)C(N)=O)[C@@H](C)CC)C(C)C)[C@@H](C)O)[C@@H](C)O` [SNH] (Stearoyl-KPRRPYTDNYTRLRKQ[Nle]AVKKYLNSILN-NH2), the “effect on MCF-7 breast cancer proliferation” value in data set [1] was “little effect”. The “order of peptide potency, inhibition of VIP-stimulated cAMP” value in data set [2] (10 nM VIP) is listed as “(SN)VIPhybrid>VIP hybrid >PTC4495”. Moreover, the “effect on basal cAMP” value in data set [2] (1 μM) is recorded as “no effect”. Besides, the “inhibition of the increase in cAMP caused by 10 nM VIP” value in data set [2] (1 μM, 10 nM VIP) is “strongly inhibited”. Further, in data set [3], the “relative potency at inhibiting U-87 colony formation” value is on record as “more potent than VIP hybrid”. Besides, in data set [4], the “reduction in viable cells” value worked out at 40%. Also, the “inhibition of the growth of cancer cells” value in data set [5] (10 mM of SNH) was “significantly inhibits”. Moreover, the “death of the cancer cells” value in data set [5] (8-10 mM SNH, FCS lower than 2%) is reported as “complete or almost complete death”. For the same molecule, the “cell lines significantly inhibited” value in data set [6] (CNS cancer) is given as 5/5; in data set [6] (breast cancer), 6/8; in data set [6] (colon cancer) it was 6/7; in data set [6] (leukemia), 6/6; in data set [6] (melanoma) it was 8/8; in data set [6] (non-small cell lung cancer) it was 7/7. Besides, the “cell lines significantly inhibited” value in data set [6] (ovarian cancer) was 5/6; in data set [6] (prostate cancer), 2/2; in data set [6] (renal cancer), 6/7. For the same molecule, the “cell lines whose proliferation was significantly inhibited” value in data set [6] (all cell lines tested) is 51 of 56. The growth inhibition in data set [7] is reported as 15-20%.
